What is called IC50 is the concentration needed to halve the response being measured. Read a low IC50 as greater potency in that assay.

One assay has as its target T1, KRas^G12V (Homo sapiens, UniProt P01116, G12V).
T1 construct: […]; biotin (biotinylated); purchased Accelegan Inc
The experiment in a line: KRas binding assay (TR-FRET displacement of Cy5 labelled tracer). Background: Time-resolved FRET reads energy transfer from a long-lived donor to a nearby acceptor.

The next assay deals with T2, KRas^WT (Homo sapiens, UniProt P01116).
T2 construct: […]; biotin (biotinylated); purchased Accelegan Inc
T2 sequence (P01116 1-169 isoform P01116-2): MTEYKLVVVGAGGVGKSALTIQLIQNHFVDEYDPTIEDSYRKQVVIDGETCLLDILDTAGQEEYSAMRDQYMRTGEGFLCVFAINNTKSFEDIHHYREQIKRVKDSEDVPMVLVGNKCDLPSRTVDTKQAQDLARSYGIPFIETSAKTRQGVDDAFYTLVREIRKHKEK
Described as above.

Another assay addresses KRas^G13D (Homo sapiens, UniProt P01116, G13D). The experiment in a line: biochemical.
A further assay has as its target T3, KRas^G12S (Homo sapiens, UniProt P01116, G12S).
T3 construct: […]; biotin (biotinylated); purchased Accelegan Inc
The experiment in a line: KRas binding assay (TR-FRET displacement of Cy5 labelled tracer).

The next assay addresses KRas^Q61H (Homo sapiens, UniProt P01116, Q61H). As to the kind of experiment: biochemical.
The next assay has as its target T4, KRas^G12D (Homo sapiens, UniProt P01116, G12D).
T4 construct: […]; biotin (biotinylated); purchased Accelegan Inc
The experiment in a line: KRas binding assay (TR-FRET displacement of Cy5 labelled tracer).

In a further assay the target is T5, KRas^G12A (Homo sapiens, UniProt P01116, G12A).
T5 construct: […]; biotin (biotinylated); purchased Accelegan Inc
T5 sequence (P01116 1-169 isoform P01116-2 G12A): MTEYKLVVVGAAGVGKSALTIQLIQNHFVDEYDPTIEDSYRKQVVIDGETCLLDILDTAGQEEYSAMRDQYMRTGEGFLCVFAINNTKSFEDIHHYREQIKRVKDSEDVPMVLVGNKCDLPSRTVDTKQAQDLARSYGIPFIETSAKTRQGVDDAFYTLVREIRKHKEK
The description is as above.

The target of a further assay is KRas^G12C (Homo sapiens, UniProt P01116, G12C). As to the kind of experiment: biochemical.
KRas^G12C, sequence (P01116 1-169 isoform P01116-2 G12C): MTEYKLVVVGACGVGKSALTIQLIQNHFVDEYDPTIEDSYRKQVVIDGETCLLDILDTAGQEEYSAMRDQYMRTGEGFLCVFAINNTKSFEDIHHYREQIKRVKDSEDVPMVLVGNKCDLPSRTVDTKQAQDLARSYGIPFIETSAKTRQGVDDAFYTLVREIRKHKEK
A further assay deals with T6, KRas^G12R (Homo sapiens, UniProt P01116, G12R).
T6 construct: […]; biotin (biotinylated); purchased Accelegan Inc
T6 sequence (P01116 1-169 isoform P01116-2 G12R): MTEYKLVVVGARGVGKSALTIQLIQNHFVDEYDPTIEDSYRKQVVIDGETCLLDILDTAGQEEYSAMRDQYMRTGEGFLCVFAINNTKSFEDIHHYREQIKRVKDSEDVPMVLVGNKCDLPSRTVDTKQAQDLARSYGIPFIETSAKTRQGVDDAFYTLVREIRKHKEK
The experiment in a line: KRas binding assay (TR-FRET displacement of Cy5 labelled tracer).

T3 sequence (P01116 1-169 isoform P01116-2 G12S): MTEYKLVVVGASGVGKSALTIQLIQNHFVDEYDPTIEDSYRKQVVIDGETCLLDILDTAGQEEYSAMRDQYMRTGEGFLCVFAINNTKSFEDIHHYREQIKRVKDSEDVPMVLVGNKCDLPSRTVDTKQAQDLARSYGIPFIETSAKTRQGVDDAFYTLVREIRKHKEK
KRas^Q61H, sequence (P01116 1-169 isoform P01116-2 Q61H): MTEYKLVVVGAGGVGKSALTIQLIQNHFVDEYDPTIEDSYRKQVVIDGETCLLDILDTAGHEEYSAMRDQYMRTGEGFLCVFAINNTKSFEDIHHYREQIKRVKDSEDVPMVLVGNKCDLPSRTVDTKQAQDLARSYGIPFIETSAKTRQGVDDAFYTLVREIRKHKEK
T1 sequence (P01116 1-169 isoform P01116-2 G12V): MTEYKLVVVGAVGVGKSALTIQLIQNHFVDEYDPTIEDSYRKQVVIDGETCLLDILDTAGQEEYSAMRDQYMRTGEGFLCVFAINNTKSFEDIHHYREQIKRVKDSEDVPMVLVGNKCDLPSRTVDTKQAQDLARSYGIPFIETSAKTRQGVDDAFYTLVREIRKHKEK
KRas^G13D, sequence (P01116 1-169 isoform P01116-2 G13D): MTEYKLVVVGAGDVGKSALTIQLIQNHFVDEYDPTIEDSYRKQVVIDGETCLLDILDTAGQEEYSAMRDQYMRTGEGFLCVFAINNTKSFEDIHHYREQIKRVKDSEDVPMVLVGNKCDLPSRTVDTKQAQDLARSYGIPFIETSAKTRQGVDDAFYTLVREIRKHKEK
T4 sequence (P01116 1-169 isoform P01116-2 G12D): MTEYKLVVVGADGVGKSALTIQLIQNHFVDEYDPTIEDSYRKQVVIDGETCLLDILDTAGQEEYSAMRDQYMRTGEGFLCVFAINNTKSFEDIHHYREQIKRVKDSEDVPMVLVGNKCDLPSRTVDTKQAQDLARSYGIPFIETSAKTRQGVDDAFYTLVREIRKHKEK
Procedure for KRas^G12A: (§1) The ability of a compound to bind to KRas was measured using a TR-FRET displacement assay. […] After a 60-minute incubation at room temperature, the reaction was measured using a BMG LABTECH CLARIO star Plus via TR-FRET. […] The POC values were fit to a 4-parameter IC50 equation and the IC50 value reported.
Procedure for KRas^G12C: as §1
Procedure for KRas^G12D: as §1
Procedure for KRas^G12R: as §1
Procedure for KRas^G12S: as §1
Procedure for KRas^G12V: as §1
Procedure for KRas^G13D: as §1
Procedure for KRas^Q61H: as §1
Procedure for KRas^WT: as §1

In the case of `CCc1cccc2cccc(N3CCc4c(nc(OCC56CCCN5CCC6)nc4N4CC(CO)OC5(CCC5)C4)C3)c12` (stereo not drawn) [Example 129, (8-(7-(8-ethylnaphthalen-1-yl)-2-((tetrahydro-1H-pyrrolizin-7a(5H)-yl)methoxy)-5,6,7,8-tetrahydropyrido[3,4-d]pyrimidin-4-yl)-5-oxa-8-azaspiro[3.5]nonan-6-yl)methanol], the IC50 on KRas^G12V stood at 2410 nM; at KRas^WT, 2210 nM; on KRas^G13D it was 3220 nM; at KRas^G12S, 2140 nM; against KRas^Q61H, 2430 nM; on KRas^G12D it was 16000 nM. In addition, the figures for the IC50 at KRas^G12A, against KRas^G12C and on KRas^G12R were 2970 nM, 1300 nM and 760 nM, respectively.
On to `CCc1cccc2cccc(N3CCc4c(nc(OCC56CCCN5CCC6)nc4N4CCOC5(CCSC5)C4)C3)c12` (stereo not drawn) [Example 130, 9-(7-(8-ethylnaphthalen-1-yl)-2-((tetrahydro-1H-pyrrolizin-7a(5H)-yl)methoxy)-5,6,7,8-tetrahydropyrido[3,4-d]pyrimidin-4-yl)-6-oxa-2-thia-9-azaspiro[4.5]decane], for which the IC50 on KRas^G12V was 1260 nM; on KRas^WT, 772 nM; against KRas^G13D, 1160 nM; on KRas^G12S, 1300 nM; against KRas^Q61H, 950 nM; on KRas^G12D, 5070 nM. Besides, the IC50 on KRas^G12A came out at 1460 nM; against KRas^G12C, 1100 nM; on KRas^G12R it was 1230 nM.
Turning to `CCc1cccc2cccc(N3CCc4c(nc(OCC56CCCN5CCC6)nc4N4CCCC(C(C)O)C4)C3)c12` (stereo not drawn) [Example 131, 1-(1-(7-(8-ethylnaphthalen-1-yl)-2-((tetrahydro-1H-pyrrolizin-7a(5H)-yl)methoxy)-5,6,7,8-tetrahydropyrido[3,4-d]pyrimidin-4-yl)piperidin-3-yl)ethan-1-ol], the IC50 at KRas^G12V was determined as 1260 nM; at KRas^WT, 1410 nM; against KRas^G13D, 1360 nM; at KRas^G12S it was 1350 nM; against KRas^Q61H, 1480 nM; at KRas^G12D it was 2120 nM. Further, the IC50 at KRas^G12A is 1200 nM; against KRas^G12C, 1070 nM; at KRas^G12R it was 774 nM.
With `CCc1cccc2cccc(N3CCc4c(nc(OCC56CCCN5CCC6)nc4N4CCCC(n5nccn5)C4)C3)c12` (stereo not drawn) [Example 132, 4-(3-(2H-1,2,3-triazol-2-yl)piperidin-1-yl)-7-(8-ethylnaphthalen-1-yl)-2-((tetrahydro-1H-pyrrolizin-7a(5H)-yl)methoxy)-5,6,7,8-tetrahydropyrido[3,4-d]pyrimidine], the IC50 was found to be 1640 nM on KRas^G12V; 1430 nM on KRas^WT; 1450 nM against KRas^G13D; 1660 nM at KRas^G12S; 1720 nM against KRas^Q61H; 3900 nM on KRas^G12D. Also, the IC50 at KRas^G12A is 1180 nM; at KRas^G12C, 1320 nM; on KRas^G12R, 775 nM.
For `CCc1cccc2cccc(N3CCc4c(nc(OCC56CCCN5CCC6)nc4N4CC(C)CC(CO)C4)C3)c12` (stereo not drawn) [Example 133, (1-(7-(8-ethylnaphthalen-1-yl)-2-((tetrahydro-1H-pyrrolizin-7a(5H)-yl)methoxy)-5,6,7,8-tetrahydropyrido[3,4-d]pyrimidin-4-yl)-5-methylpiperidin-3-yl)methanol], the IC50 came to 936 nM at KRas^G12V; 1340 nM at KRas^WT; 1500 nM at KRas^G13D; 1020 nM at KRas^G12S; 1440 nM against KRas^Q61H; 945 nM at KRas^G12D. Further, the IC50 on KRas^G12A is 1020 nM; at KRas^G12C, 871 nM; on KRas^G12R, 781 nM.
Consider `CCc1cccc2cccc(N3CCc4c(nc(OCC56CCCN5CCC6)nc4N4CCCC(c5ncc(C)s5)C4)C3)c12` (stereo not drawn) [Example 135, 2-(1-(7-(8-ethylnaphthalen-1-yl)-2-((tetrahydro-1H-pyrrolizin-7a(5H)-yl)methoxy)-5,6,7,8-tetrahydropyrido[3,4-d]pyrimidin-4-yl)piperidin-3-yl)-5-methylthiazole], for which the IC50 at KRas^G12V stood at 2850 nM; at KRas^WT it was 2830 nM; against KRas^G13D, 2810 nM; on KRas^G12S it was 2420 nM; against KRas^Q61H it was 2850 nM; at KRas^G12D, 4100 nM. Moreover, the values for the IC50 on KRas^G12A, on KRas^G12C and on KRas^G12R were 2670 nM, 1930 nM and 850 nM, respectively.
`CCc1cccc2cccc(N3CCc4c(nc(OCC56CCCN5CCC6)nc4NCc4nnc(N)o4)C3)c12` [Example 136, 5-(((7-(8-ethylnaphthalen-1-yl)-2-((tetrahydro-1H-pyrrolizin-7a(5H)-yl)methoxy)-5,6,7,8-tetrahydropyrido[3,4-d]pyrimidin-4-yl)amino)methyl)-1,3,4-oxadiazol-2-amine]: the IC50 on KRas^G12V is 868 nM; on KRas^WT it was 1560 nM; on KRas^G13D, 3280 nM; on KRas^G12S, 1990 nM; at KRas^Q61H, 2300 nM; at KRas^G12D, 3390 nM. Also, the IC50 at KRas^G12A was found to be 1540 nM; at KRas^G12C, 969 nM; on KRas^G12R it was 1630 nM.
With `CCc1cccc2cccc(N3CCc4c(nc(OCC56CCCN5CCC6)nc4N4CCCC(N5CCCC5=O)C4)C3)c12` (stereo not drawn) [Example 137, 1-(1-(7-(8-ethylnaphthalen-1-yl)-2-((tetrahydro-1H-pyrrolizin-7a(5H)-yl)methoxy)-5,6,7,8-tetrahydropyrido[3,4-d]pyrimidin-4-yl)piperidin-3-yl)pyrrolidin-2-one], the IC50 at KRas^G12V was 1470 nM; on KRas^WT, 1660 nM; against KRas^G13D it was 1350 nM; at KRas^G12S, 1080 nM; against KRas^Q61H it was 1470 nM; on KRas^G12D, 3240 nM. Further, the results for the IC50 on KRas^G12A, against KRas^G12C and on KRas^G12R were 948 nM, 1030 nM and 1140 nM, respectively.
Regarding `CCc1cccc2cccc(N3CCc4c(nc(OCC56CCCN5CCC6)nc4Nc4cnn(CC(N)=O)c4)C3)c12` [Example 139, 2-(4-((7-(8-ethylnaphthalen-1-yl)-2-((tetrahydro-1H-pyrrolizin-7a(5H)-yl)methoxy)-5,6,7,8-tetrahydropyrido[3,4-d]pyrimidin-4-yl)amino)-1H-pyrazol-1-yl)acetamide], the half-inhibitory concentration (IC50) on KRas^G12V was 1170 nM; on KRas^WT it was 3480 nM; against KRas^G13D it was 5440 nM; at KRas^G12S, 2830 nM; at KRas^Q61H it was 4580 nM; at KRas^G12D it was 12400 nM. Moreover, the IC50 on KRas^G12A worked out at 2540 nM; against KRas^G12C, 1490 nM; on KRas^G12R, 1410 nM.
Consider `CCc1cccc2cccc(N3CCc4c(nc(OCC56CCCN5CCC6)nc4N4CCCC(c5nc(C)c(C(=O)NC6CCC6)o5)C4)C3)c12` (stereo not drawn) [Example 140, N-cyclobutyl-2-(1-(7-(8-ethylnaphthalen-1-yl)-2-((tetrahydro-1H-pyrrolizin-7a(5H)-yl)methoxy)-5,6,7,8-tetrahydropyrido[3,4-d]pyrimidin-4-yl)piperidin-3-yl)-4-methyloxazole-5-carboxamide], for which the IC50 came to 2380 nM on KRas^G12V; 1920 nM on KRas^WT; 1760 nM at KRas^G13D; 2000 nM at KRas^G12S; 2230 nM on KRas^Q61H; 5210 nM at KRas^G12D. For the same compound, the IC50 is 1660 nM on KRas^G12A, 1180 nM against KRas^G12C and 1440 nM at KRas^G12R.
Regarding `CCc1cccc2cccc(N3CCc4c(nc(OCC56CCCN5CCC6)nc4N4CC[C@H]5C(=O)NC[C@H]5C4)C3)c12` [Example 141, (3aS,7aR)-5-(7-(8-ethylnaphthalen-1-yl)-2-((tetrahydro-1H-pyrrolizin-7a(5H)-yl)methoxy)-5,6,7,8-tetrahydropyrido[3,4-d]pyrimidin-4-yl)octahydro-1H-pyrrolo[3,4-c]pyridin-1-one], the IC50 stood at 1260 nM on KRas^G12V; 1620 nM on KRas^WT; 1200 nM on KRas^G13D; 2490 nM on KRas^G12S; 1610 nM at KRas^Q61H; 8520 nM at KRas^G12D. Further, the IC50 at KRas^G12A came to 2950 nM; at KRas^G12C, 2300 nM; at KRas^G12R it was 1640 nM.
As for `CCc1cccc2cccc(N3CCc4c(nc(OCC56CCCN5CCC6)nc4NCc4cccnc4-n4cncn4)C3)c12` [Example 142, N-((2-(1H-1,2,4-triazol-1-yl)pyridin-3-yl)methyl)-7-(8-ethylnaphthalen-1-yl)-2-((tetrahydro-1H-pyrrolizin-7a(5H)-yl)methoxy)-5,6,7,8-tetrahydropyrido[3,4-d]pyrimidin-4-amine], the IC50 at KRas^G12V was 1380 nM; at KRas^WT it was 7520 nM; at KRas^G13D, 13100 nM; on KRas^G12S, 1870 nM; against KRas^Q61H, 7250 nM; at KRas^G12D, 10500 nM. Besides, the IC50 came to 2320 nM at KRas^G12A, 1250 nM at KRas^G12C and 1720 nM at KRas^G12R.
In the case of `CCc1cccc2cccc(N3CCc4c(nc(OCC56CCCN5CCC6)nc4N4CCCC(c5n[nH]cc5NC(C)=O)C4)C3)c12` (stereo not drawn) [Example 143, N-(3-(1-(7-(8-ethylnaphthalen-1-yl)-2-((tetrahydro-1H-pyrrolizin-7a(5H)-yl)methoxy)-5,6,7,8-tetrahydropyrido[3,4-d]pyrimidin-4-yl)piperidin-3-yl)-1H-pyrazol-4-yl)acetamide], the IC50 at KRas^G12V was determined as 4150 nM; on KRas^WT it was 2050 nM; at KRas^G13D, 1320 nM; at KRas^G12S it was 2470 nM; against KRas^Q61H, 1250 nM; at KRas^G12D, 5920 nM. Moreover, the IC50 at KRas^G12A was 2230 nM; at KRas^G12C it was 1920 nM; on KRas^G12R, 2010 nM.

The values are drawn from US12421253B2 (Mirati Therapeutics, Inc., priority 2020, dated 2025).
